Experimental data published in PubChem BioAssay AID488890 (Southern Research Specialized Biocontainment Screening …, 2010).
Records with an inconclusive call do not appear. The source made the active and inactive calls. No rule for the calls is given here.

system: Mycobacterium tuberculosis non-replicating, growth inhibition; test: growth inhibition of non-replicating M. tuberculosis (AID 488890)

SMILES	IC50
CO/N=C/CC(=O)c1ccc(OC)cc1	30.5 µM (inactive)
CC(C)(C)C(=O)/C=C/Nc1ccccc1O	4.66 µM
CCOC(=O)c1sc(NC(=O)CCN2CCOCC2)c(C(=O)OCC)c1C	1.73 µM
CCC1CCc2sc(C(=O)NCC3CCCO3)cc2C1 (centres undefined)	1.44 µM
Cc1nc2c(=O)n(C)c(=O)nc-2n(C)n1	8.25 µM
COCc1cc(=O)[nH]c(Nc2nc3ccccc3o2)n1	1.58 µM
CCOc1c(OC(C)=O)ccc(/C=C2\N=C(SCC)SC2=O)c1[N+](=O)[O-]	10.2 µM (inactive)
COc1ccc(C(=O)NNC2=C(C(=O)C(F)(F)F)CCC2)cc1	1.9 µM
S=c1c2c(nc3nc[nH]n13)CCC2	4.68 µM
O=C(Nc1nnc(C2=COCCO2)o1)c1ccc(Cc2ccccc2)cc1	30.6 µM (inactive)
CC(NC(=O)COc1ccc(-c2ccccc2)cc1)C1CCCO1 (centres undefined)	8.2 µM
O=[N+]([O-])c1cccnc1N/N=C/c1ccccc1O	2.87 µM
N=C1S/C(=C\c2ccco2)C(=O)N1c1nccs1	3.04 µM
O=C(OCc1nc2ccccc2s1)c1ccc(Br)o1	3.63 µM
c1ccc2cc(OCCCn3ccnc3)ccc2c1	16.5 µM (inactive)
C/C(=N\NC(=O)c1ccncc1)c1cc2ccccc2oc1=O	0.43 µM
COC(=O)c1ccc(C(=O)NC2CC(C)(C)Cc3c2cnn3-c2ccc(F)cc2)nc1 (centres undefined)	15.7 µM (inactive)
Cc1ccc(CN2CC(C(=O)OCc3ccccc3Cl)CC2=O)cc1 (centres undefined)	8.11 µM
CCN(CC)c1ccc2cc(C(=O)NCc3ccc(F)cc3)c(=N)oc2c1	1.62 µM
O=C(Nc1nnc(-c2ccco2)o1)c1ccc([N+](=O)[O-])s1	22.4 µM (inactive)
Oc1ccccc1-c1nnc(COc2ccccc2)o1	11.2 µM (inactive)
Cc1ccc(C(C)C)c(OCC(=O)OCc2c(C)noc2C)c1	3.51 µM
CC1(C(=O)NC(=S)NNC(=O)c2ccncc2)CCCCC1	0.94 µM
COC(=O)C(C)Oc1ccc2cc(-c3ccccc3)c(=O)oc2c1 (centres undefined)	4.96 µM

SMILES	IC50
CCc1ccc(NC(=O)COc2ccc3c(c2)OCO3)cc1	5.33 µM
O=C(COC(=O)c1ccc(Br)o1)NCCCc1ccccc1	6.5 µM
Cc1cc2oc3ccc(NCCCn4ccnc4)cc3c(=O)c2cc1C	20.9 µM (inactive)
Cc1ccc(CCC(=O)Nc2ccc([N+](=O)[O-])cc2)o1	15.1 µM (inactive)
O=C(Nc1nc(-c2cc(F)ccc2F)cs1)c1ccccn1	2.28 µM
O=C(COC(=O)CC1CCCC1)Nc1ccc(Cl)cn1	17.2 µM (inactive)
O=[N+]([O-])c1cnc(Nc2ccc(Cl)cn2)c([N+](=O)[O-])c1	1.89 µM
CCCCCn1nnc2c(=O)oc3ccccc3c21	1.2 µM
Cn1ccsc1=NC(=O)c1ccccc1F	22.4 µM (inactive)
CNCc1ccccc1Sc1cc(O)ccc1O	5.19 µM
CN1C(=O)NC(=O)/C(=C/c2ccc([N+](=O)[O-])s2)C1=O	10.3 µM (inactive)
c1ccc2sc(SCc3ccc(-c4nnco4)cc3)nc2c1	13.2 µM (inactive)
COC(=O)COc1cccc(/C=N/NC(=O)CCSc2ccccc2)c1	9.71 µM
C/C(=N/NC(=O)c1cccc(C)c1)c1c(O)cc(C)oc1=O	9.19 µM
C/C(=N\NC(=O)c1ccco1)c1cc(Cl)sc1Cl	4.89 µM
O=C(OCc1nnc(-c2ccccc2)o1)c1ccc(Br)o1	9.14 µM
COc1cccc(-c2nc(C=O)cs2)c1	37.2 µM (inactive)
CC1C/C(=N/NC(=O)c2cccc(F)c2)c2ccc(O)cc2C1 (centres undefined)	14 µM (inactive)
O=C(c1ccc(Br)o1)N1CCC(Cc2ccccc2)CC1	3.77 µM
Cc1cccc(NC(=O)c2ccc([N+](=O)[O-])s2)n1	0.52 µM
COc1cc(/C=C2/C(=O)NN(c3ccc(Cl)cc3)C2=O)ccc1OC(=O)c1ccco1	5.12 µM
Cc1ccc(C(=O)NCCOc2cccc(C)c2)cc1	3.92 µM
Cc1cc(-c2n[nH]c(=S)n2/N=C/C(Br)=C/c2ccccc2)n[nH]1	19.8 µM (inactive)
Cc1ccc(C)c(-c2csc(NC(=O)c3cnccn3)n2)c1	3.13 µM

SMILES	IC50
NC1CCN(c2c(F)cc3c(=O)c(C(=O)O)cn(C4CC4)c3c2Cl)C1 (centres undefined)	0.15 µM
Cc1ccc2nc(/N=C(\N)NC(=O)NC3CCCCC3)nc(C)c2c1	8.34 µM
CCOc1ccc(Nc2cc(C)nc(-n3nc(C)cc3C)n2)cc1	3.32 µM
O=C(N/N=C(\c1ccccc1)c1cccnc1)c1cccc(F)c1	3.88 µM
Cc1cc(Br)ccc1OCC(=O)NNC(=O)C(=O)Nc1ccccc1	1.22 µM
CC(C)(C)c1csc(NC(=O)c2ccccc2O)n1	19.6 µM (inactive)
CCOC(=O)c1ccc(COC(=O)c2cc3ccccc3oc2=O)o1	12.1 µM (inactive)
CCOc1cccc2cc(C(=O)NCc3ccccc3)c(=N)oc12	10.2 µM (inactive)
Cc1cc(C)nc(/N=C(\N)Nc2ccc(-c3ccccc3)cc2)n1	3.5 µM
Cc1cc(C)c(OCC(=O)Nc2nnc(-c3ccco3)o2)c(C)c1	45.3 µM (inactive)
CCCOC(=O)c1ccc(OC(=O)c2ccco2)cc1	21.9 µM (inactive)
C/C(=N\NC(=O)C(C)Oc1ccc([N+](=O)[O-])cc1)c1ccccn1 (centres undefined)	9.84 µM
CCc1nnc(NC(=O)CN2CCN(Cc3ccc(F)cc3)CC2)s1	47 µM (inactive)
Cc1ccsc1/C=N/NC(=O)c1ccncc1	2.05 µM
N#Cc1ccc(CSc2nnc(-c3cccnc3)o2)cc1	11.5 µM (inactive)
Cc1ccc(NC(=O)C2=C(c3ccccc3)S(=O)(=O)CCS2(=O)=O)cc1	2.05 µM
COc1ccc(Nc2cc(C)nc(-n3nc(C)cc3C)n2)cc1	4.02 µM
Clc1ccc(OCCCCN2CCc3ccccc3C2)cc1	9.36 µM
O=C(CCNc1cccc(F)c1)c1cccc([N+](=O)[O-])c1	5.37 µM
O=c1c2cc(Br)ccc2nc(-c2cccc(C(F)(F)F)c2)n1O	0.43 µM
Cc1ccccc1C(=O)NNc1ccc([N+](=O)[O-])cc1	20.4 µM (inactive)
CC(/C=C/c1cccc([N+](=O)[O-])c1)=N\NC(=O)c1ccncc1	1.2 µM
O=C(N/N=C/C=C/c1cccc([N+](=O)[O-])c1)c1ccncc1	24.8 µM (inactive)
COC(=O)CCSCc1cn2cc(Cl)ccc2n1	32 µM (inactive)

SMILES	IC50
O=C(N/N=C/c1ccccn1)c1cccc(S(=O)(=O)Nc2ccccc2Cl)c1	15.1 µM (inactive)
O=C(COC(=O)c1ccccc1Cl)NCCC1=CCCCC1	14.1 µM (inactive)
S=C1SCN(Cc2ccco2)CN1Cc1ccco1	14.1 µM (inactive)
CCCOC(=O)c1ccc(NC(=O)Cc2cccs2)cc1	24.1 µM (inactive)
Cc1ccc(C(=O)Nc2nnc(C3=COCCO3)o2)cc1C	9.19 µM
Cc1ccc2nc(NC(=O)c3ccccn3)sc2c1	0.63 µM
Cc1cc(N2CCCCC2)nc(NCc2ccccc2)n1	8.38 µM
O=C1/C(=C/c2ccccn2)COc2ccccc21	15.8 µM (inactive)
CC(C)(C)C(=O)COc1ccccc1[N+](=O)[O-]	17.6 µM (inactive)
CCCS(=O)(=O)c1nnnn1-c1cccc(OC)c1	3.56 µM
COc1ccc(C(=O)CCN2CCCCCC2)cc1	2.05 µM
COc1ccc2cc(C(=O)NCc3ccccc3)c(=O)oc2c1	39.3 µM (inactive)
CC(NCc1ccc(OCc2ccc(Cl)cc2)cc1)C(O)c1ccccc1 (centres undefined)	6.84 µM
CCOC(=O)CC(=O)Nc1ccc(C(=O)OCC)cc1	5.23 µM
O=C(c1cc2ccccc2o1)c1nc2c(n1O)CCCCC2	12.8 µM (inactive)
Nc1ccc(Br)c2cccnc12	15.8 µM (inactive)
O=C(OCc1ccccn1)c1ccc(COc2ccccc2Cl)o1	3.14 µM
Cc1ccccc1OCC(O)Cn1c(=N)n(Cc2ccccc2)c2ccccc21 (centres undefined)	7.63 µM
Cc1cc(NC(=O)c2ccccc2F)n(-c2nc3ccccc3[nH]2)n1	7.5 µM
Cc1ccc(C(=O)N/N=C\c2ccc([N+](=O)[O-])s2)cn1	3.36 µM
Cc1ccc(-c2nn(-c3ccccc3)cc2/C=N/NC(=O)c2ccncc2)o1	6.11 µM
CC(C)=CC1C(C(=O)Nc2ccc(Br)cn2)C1(C)C (centres undefined)	3.57 µM
CN1/C(=C\C(=O)COC(=O)c2ccc([N+](=O)[O-])o2)C(C)(C)c2ccccc21	3.61 µM
O=C(Nc1ncc(Cc2ccccc2)s1)C1=NCCN1	9.49 µM

SMILES	IC50
CS(=O)(=O)Nc1cccc2cccnc12	21.4 µM (inactive)
Cc1[nH]n2c(=O)c3c(nc2c1-c1ccccc1)CCCC3	13.6 µM (inactive)
O=C(COC(=O)CCC(=O)c1ccc(F)cc1)Nc1ccc(F)cc1F	24.6 µM (inactive)
CC1N(C)c2cccc3cccc(c23)N1C	36.8 µM (inactive)
O=C(Oc1c(-c2ccco2)oc2ccccc2c1=O)c1cccnc1	11.5 µM (inactive)
O=C(N/N=C/c1ccc([N+](=O)[O-])o1)c1sc2ccccc2c1Cl	2.9 µM
CCCCCOc1ccc(Br)cc1/C(C)=N/NC1=NCCN1	7.59 µM
O=C(COC(=O)c1ccccn1)Nc1cccc(Cl)c1Cl	6.11 µM
O=C(Nc1ccc(Br)cc1)c1cc([N+](=O)[O-])cc([N+](=O)[O-])c1	2.63 µM
Cc1ccc(CCC(=O)Nc2ccc(C)c(C)c2)o1	8.63 µM
CCS(=O)(=O)c1ncc(Cl)c(C(=O)Nc2ccc(C)cc2)n1	4.64 µM
NC(=O)CN1CCN(C2CC(=O)N(CCc3ccccc3)C2=O)CC1 (centres undefined)	19.9 µM (inactive)
CSC1=NSC2=NC(=O)/C(=C\c3cccs3)C(=N)N12	4.51 µM
Cc1ccc(C)c(NC(=O)COC(=O)c2cc3ccccc3oc2=O)c1	17 µM (inactive)
O=[N+]([O-])c1ccc2nc(-c3ccccn3)[nH]c2c1	18.3 µM (inactive)
C/C(=N\NC(=O)c1ccc(Cl)cc1)c1ccccn1	0.89 µM
COc1ccc(C(=O)N/N=C/c2cccc3cccnc23)cc1	6.88 µM
Cc1ccc(Sc2ncccc2N)cc1	41.3 µM (inactive)
Cc1ccc(-c2noc(CCC(=O)Nc3cccc(C#N)c3)n2)cc1	17.4 µM (inactive)
Cc1ccc(Sc2ccc(/C=C3/C(=O)NN(c4ccccc4)C3=O)o2)cc1	4.23 µM
CC(C)c1ccc(OCC(=O)NC2=NCCS2)cc1	22.2 µM (inactive)
CCC(=O)c1ccc(OCC(=O)OCC(=O)c2cc(C)n(C3CC3)c2C)cc1	7.97 µM
COc1cccc2c1C(CO)N1C(C#N)C3CC(C(=O)O)C(C1C2)N3C (centres undefined)	2.09 µM
